± gives the expanded uncertainty stated by the source.
Test: mn = molality of the nth substance listed, in mol/kg
Details: 100 kPa, Liquid, Vibrating tube method

COS(=O)(=O)[O-].Cn1cc[n+](C)c1 [1,3-dimethylimidazolium methylsulfate] + O
mass density [kg/m3]
Details | m1 = 0.0333 | m1 = 0.052 | m1 = 0.0743 | m1 = 0.0945 | m1 = 0.1147 | m1 = 0.1309 | m1 = 0.1517 | m1 = 0.1791
288.15 K | 1000.78 ± 2 | 1001.71 ± 2 | 1002.81 ± 2 | 1003.79 ± 2 | 1004.77 ± 2 | 1005.55 ± 2 | 1006.54 ± 2 | 1007.82 ± 2
298.15 K | 998.673 ± 2 | 999.578 ± 2 | 1000.65 ± 2 | 1001.61 ± 2 | 1002.57 ± 2 | 1003.33 ± 2 | 1004.3 ± 2 | 1005.56 ± 2
308.15 K | 995.619 ± 2 | 996.505 ± 2 | 997.553 ± 2 | 998.494 ± 2 | 999.435 ± 2 | 1000.18 ± 2 | 1001.14 ± 2 | 1002.38 ± 2
318.15 K | 991.771 ± 2 | 992.648 ± 2 | 993.684 ± 2 | 994.617 ± 2 | 995.542 ± 2 | 996.28 ± 2 | 997.222 ± 2 | 998.46 ± 2

CCCCn1cc[n+](C)c1.[Br-] [1-butyl-3-methylimidazolium bromide] + O
mass density [kg/m3]
Details | m1 = 0.0317 | m1 = 0.0585 | m1 = 0.073 | m1 = 0.0916 | m1 = 0.114 | m1 = 0.1319 | m1 = 0.1508 | m1 = 0.1706 | m1 = 0.191
288.15 K | 1000.71 ± 2 | 1002.05 ± 2 | 1002.78 ± 2 | 1003.7 ± 2 | 1004.8 ± 2 | 1005.69 ± 2 | 1006.6 ± 2 | 1007.56 ± 2 | 1008.55 ± 2
298.15 K | 998.612 ± 2 | 999.924 ± 2 | 1000.63 ± 2 | 1001.53 ± 2 | 1002.61 ± 2 | 1003.47 ± 2 | 1004.36 ± 2 | 1005.3 ± 2 | 1006.26 ± 2
308.15 K | 995.556 ± 2 | 996.84 ± 2 | 997.535 ± 2 | 998.413 ± 2 | 999.47 ± 2 | 1000.32 ± 2 | 1001.19 ± 2 | 1002.12 ± 2 | 1003.07 ± 2
318.15 K | 991.699 ± 2 | 992.959 ± 2 | 993.641 ± 2 | 994.509 ± 2 | 995.544 ± 2 | 996.382 ± 2 | 997.243 ± 2 | 998.148 ± 2 | 999.08 ± 2

CCCCn1cc[n+](C)c1.[Cl-] [1-butyl-3-methylimidazolium chloride] + O
mass density [kg/m3]
Details | 288.15 K | 298.15 K | 308.15 K | 318.15 K
m1 = 0.0323 | 999.529 ± 2 | 997.423 ± 2 | 994.372 ± 2 | 990.507 ± 2
m1 = 0.0586 | 999.875 ± 2 | 997.736 ± 2 | 994.658 ± 2 | 990.768 ± 2
m1 = 0.0739 | 1000.08 ± 2 | 997.92 ± 2 | 994.834 ± 2 | 990.922 ± 2
m1 = 0.0899 | 1000.29 ± 2 | 998.113 ± 2 | 995.007 ± 2 | 991.091 ± 2
m1 = 0.1048 | 1000.49 ± 2 | 998.297 ± 2 | 995.182 ± 2 | 991.26 ± 2
m1 = 0.1254 | 1000.76 ± 2 | 998.55 ± 2 | 995.409 ± 2 | 991.473 ± 2
m1 = 0.1437 | 1001.01 ± 2 | 998.776 ± 2 | 995.622 ± 2 | 991.68 ± 2
m1 = 0.1687 | 1001.33 ± 2 | 999.091 ± 2 | 995.913 ± 2 | 991.942 ± 2
m1 = 0.1789 | 1001.47 ± 2 | 999.214 ± 2 | 996.039 ± 2 | 992.06 ± 2
m1 = 0.191 | 1001.63 ± 2 | 999.373 ± 2 | 996.185 ± 2 | 992.216 ± 2
m1 = 0.2204 | 1002.03 ± 2 | 999.752 ± 2 | 996.541 ± 2 | 992.538 ± 2

CCCCn1cc[n+](C)c1.F[B-](F)(F)F [1-butyl-3-methylimidazolium tetrafluoroborate] + O
mass density [kg/m3]
Details | m1 = 0.0311 | m1 = 0.0527 | m1 = 0.072 | m1 = 0.0904 | m1 = 0.1103 | m1 = 0.1326 | m1 = 0.1525 | m1 = 0.1788
288.15 K | 1000.38 ± 2 | 1001.26 ± 2 | 1002.03 ± 2 | 1002.76 ± 2 | 1003.54 ± 2 | 1004.4 ± 2 | 1005.17 ± 2 | 1006.16 ± 2
298.15 K | 998.274 ± 2 | 999.116 ± 2 | 999.86 ± 2 | 1000.56 ± 2 | 1001.31 ± 2 | 1002.13 ± 2 | 1002.86 ± 2 | 1003.82 ± 2
308.15 K | 995.194 ± 2 | 995.999 ± 2 | 996.713 ± 2 | 997.385 ± 2 | 998.11 ± 2 | 998.921 ± 2 | 999.635 ± 2 | 1000.58 ± 2
318.15 K | 991.332 ± 2 | 992.114 ± 2 | 992.809 ± 2 | 993.467 ± 2 | 994.171 ± 2 | 994.948 ± 2 | 995.643 ± 2 | 996.555 ± 2

CCOS(=O)(=O)[O-].CCn1cc[n+](C)c1 [1-ethyl-3-methylimidazolium ethyl sulfate] + O
mass density [kg/m3]
Details | m1 = 0.0313 | m1 = 0.0499 | m1 = 0.0682 | m1 = 0.0901 | m1 = 0.1095 | m1 = 0.1322
288.15 K | 1000.55 ± 2 | 1001.4 ± 2 | 1002.22 ± 2 | 1003.21 ± 2 | 1004.08 ± 2 | 1005.09 ± 2
298.15 K | 998.448 ± 2 | 999.27 ± 2 | 1000.07 ± 2 | 1001.04 ± 2 | 1001.87 ± 2 | 1002.86 ± 2
308.15 K | 995.398 ± 2 | 996.212 ± 2 | 996.995 ± 2 | 997.93 ± 2 | 998.762 ± 2 | 999.712 ± 2
318.15 K | 991.566 ± 2 | 992.377 ± 2 | 993.169 ± 2 | 994.105 ± 2 | 994.936 ± 2 | 995.897 ± 2

CCCCCCCCn1cc[n+](C)c1.[Br-] [1-methyl-3-octylimidazolium bromide] + O
mass density [kg/m3]
Details | m1 = 0.0323 | m1 = 0.0501 | m1 = 0.0722 | m1 = 0.0908 | m1 = 0.1112 | m1 = 0.1301 | m1 = 0.1485 | m1 = 0.1707 | m1 = 0.191
288.15 K | 1000.51 ± 2 | 1001.28 ± 2 | 1002.24 ± 2 | 1003.03 ± 2 | 1003.9 ± 2 | 1004.69 ± 2 | 1005.47 ± 2 | 1006.39 ± 2 | 1007.25 ± 2
298.15 K | 998.383 ± 2 | 999.121 ± 2 | 1000.02 ± 2 | 1000.77 ± 2 | 1001.6 ± 2 | 1002.36 ± 2 | 1003.08 ± 2 | 1003.99 ± 2 | 1004.77 ± 2
308.15 K | 995.284 ± 2 | 995.975 ± 2 | 996.827 ± 2 | 997.539 ± 2 | 998.314 ± 2 | 999.033 ± 2 | 999.725 ± 2 | 1000.54 ± 2 | 1001.3 ± 2
318.15 K | 991.366 ± 2 | 992.011 ± 2 | 992.796 ± 2 | 993.46 ± 2 | 994.171 ± 2 | 994.852 ± 2 | 995.483 ± 2 | 996.26 ± 2 | 996.981 ± 2

CCCCCCn1cc[n+](C)c1.[Br-] [3-hexyl-1-methyl-1H-imidazolium bromide] + O
mass density [kg/m3]
Details | m1 = 0.0314 | m1 = 0.0515 | m1 = 0.0703 | m1 = 0.0881 | m1 = 0.1098 | m1 = 0.131 | m1 = 0.1505 | m1 = 0.1711 | m1 = 0.1903
288.15 K | 1000.58 ± 2 | 1001.52 ± 2 | 1002.4 ± 2 | 1003.23 ± 2 | 1004.23 ± 2 | 1005.18 ± 2 | 1006.08 ± 2 | 1007 ± 2 | 1007.87 ± 2
298.15 K | 998.466 ± 2 | 999.368 ± 2 | 1000.21 ± 2 | 1001 ± 2 | 1001.96 ± 2 | 1002.88 ± 2 | 1003.74 ± 2 | 1004.64 ± 2 | 1005.47 ± 2
308.15 K | 995.404 ± 2 | 996.284 ± 2 | 997.097 ± 2 | 997.858 ± 2 | 998.787 ± 2 | 999.688 ± 2 | 1000.5 ± 2 | 1001.4 ± 2 | 1002.2 ± 2
318.15 K | 991.535 ± 2 | 992.389 ± 2 | 993.185 ± 2 | 993.932 ± 2 | 994.837 ± 2 | 995.704 ± 2 | 996.521 ± 2 | 997.358 ± 2 | 998.139 ± 2
